Assay results from PubChem BioAssay (NCI).
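Results reflect a 48-hour exposure of cells in 96-well plates to compound at five concentrations. TGI is the concentration that stops growth completely.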

Experiments:
Assay in all cases: NCI anticancer screen, dose series, 48 h
786-0 renal = tested on: 786-0 renal
A498 renal = tested on: A498 renal
A549 NSCLC = tested on: A549 NSCLC
ACHN renal = tested on: ACHN renal
BT-549 breast = tested on: BT-549 breast
CAKI-1 renal = tested on: CAKI-1 renal
CCRF-CEM leukemia = tested on: CCRF-CEM leukemia
COLO 205 colon = tested on: COLO 205 colon
EKVX NSCLC = tested on: EKVX NSCLC
HCT-116 colon = tested on: HCT-116 colon
HCT-15 colon = tested on: HCT-15 colon
HL-60(TB) leukemia = tested on: HL-60(TB) leukemia
HOP-62 NSCLC = tested on: HOP-62 NSCLC
HOP-92 NSCLC = tested on: HOP-92 NSCLC
HS 578T breast = tested on: HS 578T breast
HT29 colon = tested on: HT29 colon
IGROV1 ovarian = tested on: IGROV1 ovarian
K-562 leukemia = tested on: K-562 leukemia
KM12 colon = tested on: KM12 colon
LOX IMVI melanoma = tested on: LOX IMVI melanoma
M14 melanoma = tested on: M14 melanoma
MALME-3M melanoma = tested on: MALME-3M melanoma
MCF7 breast = tested on: MCF7 breast
MDA-MB-231 breast = tested on: MDA-MB-231 breast
MDA-MB-435 = tested on: MDA-MB-435
MDA-N = tested on: MDA-N
MOLT-4 leukemia = tested on: MOLT-4 leukemia
NCI-H226 lung = tested on: NCI-H226 lung
NCI-H23 lung = tested on: NCI-H23 lung
NCI-H460 lung = tested on: NCI-H460 lung
NCI-H522 lung = tested on: NCI-H522 lung
NCI/ADR-RES ovarian = tested on: NCI/ADR-RES ovarian
OVCAR-3 ovarian = tested on: OVCAR-3 ovarian
OVCAR-4 ovarian = tested on: OVCAR-4 ovarian
OVCAR-5 ovarian = tested on: OVCAR-5 ovarian
OVCAR-8 ovarian = tested on: OVCAR-8 ovarian
PC-3 prostate = tested on: PC-3 prostate
RPMI-8226 leukemia = tested on: RPMI-8226 leukemia
RXF 393 renal = tested on: RXF 393 renal
SF-268 CNS = tested on: SF-268 CNS
SF-295 CNS = tested on: SF-295 CNS
SF-539 CNS = tested on: SF-539 CNS
SK-MEL-2 melanoma = tested on: SK-MEL-2 melanoma
SK-MEL-28 melanoma = tested on: SK-MEL-28 melanoma
SK-MEL-5 melanoma = tested on: SK-MEL-5 melanoma
SK-OV-3 ovarian = tested on: SK-OV-3 ovarian
SN12C renal = tested on: SN12C renal
SNB-19 CNS = tested on: SNB-19 CNS
SR leukemia = tested on: SR leukemia
SW-620 colon = tested on: SW-620 colon
TK-10 renal = tested on: TK-10 renal
U251 CNS = tested on: U251 CNS
UACC-257 melanoma = tested on: UACC-257 melanoma
UACC-62 melanoma = tested on: UACC-62 melanoma
UO-31 renal = tested on: UO-31 renal
DU-145 prostate = tested on: DU-145 prostate
HCC-2998 colon = tested on: HCC-2998 colon

## CN(C)CC(CN(C)C)c1ccccn1
786-0 renal
  TGI: > 100 µM
A498 renal
  TGI: > 100 µM
A549 NSCLC
  TGI: > 100 µM
ACHN renal
  TGI: > 100 µM
BT-549 breast
  TGI: > 100 µM
CAKI-1 renal
  TGI: > 100 µM
CCRF-CEM leukemia
  TGI: > 100 µM
COLO 205 colon
  TGI: > 100 µM
EKVX NSCLC
  TGI: > 100 µM
HCT-116 colon
  TGI: > 100 µM
HCT-15 colon
  TGI: > 100 µM
HL-60(TB) leukemia
  TGI: > 100 µM
HOP-62 NSCLC
  TGI: > 100 µM
HOP-92 NSCLC
  TGI: > 100 µM
HS 578T breast
  TGI: > 100 µM
HT29 colon
  TGI: > 100 µM
IGROV1 ovarian
  TGI: > 100 µM
K-562 leukemia
  TGI: > 100 µM
KM12 colon
  TGI: > 100 µM
LOX IMVI melanoma
  TGI: > 100 µM
M14 melanoma
  TGI: > 100 µM
MALME-3M melanoma
  TGI: > 100 µM
MCF7 breast
  TGI: > 100 µM
MDA-MB-231 breast
  TGI: > 100 µM
MDA-MB-435
  TGI: > 100 µM
MDA-N
  TGI: > 100 µM
MOLT-4 leukemia
  TGI: > 100 µM
NCI-H226 lung
  TGI: > 100 µM
NCI-H23 lung
  TGI: > 100 µM
NCI-H460 lung
  TGI: > 100 µM
NCI-H522 lung
  TGI: > 100 µM
NCI/ADR-RES ovarian
  TGI: > 100 µM
OVCAR-3 ovarian
  TGI: > 100 µM
OVCAR-4 ovarian
  TGI: > 100 µM
OVCAR-5 ovarian
  TGI: > 100 µM
OVCAR-8 ovarian
  TGI: > 100 µM
PC-3 prostate
  TGI: > 100 µM
RPMI-8226 leukemia
  TGI: > 100 µM
RXF 393 renal
  TGI: > 100 µM
SF-268 CNS
  TGI: > 100 µM
SF-295 CNS
  TGI: > 100 µM
SF-539 CNS
  TGI: > 100 µM
SK-MEL-2 melanoma
  TGI: > 100 µM
SK-MEL-28 melanoma
  TGI: > 100 µM
SK-MEL-5 melanoma
  TGI: > 100 µM
SK-OV-3 ovarian
  TGI: > 100 µM
SN12C renal
  TGI: > 100 µM
SNB-19 CNS
  TGI: > 100 µM
SR leukemia
  TGI: > 100 µM
SW-620 colon
  TGI: > 100 µM
TK-10 renal
  TGI: > 100 µM
U251 CNS
  TGI: > 100 µM
UACC-257 melanoma
  TGI: > 100 µM
UACC-62 melanoma
  TGI: > 100 µM
UO-31 renal
  TGI: > 100 µM

## Cc1ccccc1Nc1cn(COCc2ccccc2)c(=O)[nH]c1=O
786-0 renal
  TGI: > 100 µM
A498 renal
  TGI: > 100 µM
A549 NSCLC
  TGI: > 100 µM
ACHN renal
  TGI: > 100 µM
BT-549 breast
  TGI: 66.2 µM
CAKI-1 renal
  TGI: > 100 µM
CCRF-CEM leukemia
  TGI: > 100 µM
COLO 205 colon
  TGI: > 100 µM
DU-145 prostate
  TGI: > 100 µM
EKVX NSCLC
  TGI: > 100 µM
HCC-2998 colon
  TGI: > 100 µM
HCT-116 colon
  TGI: > 100 µM
HCT-15 colon
  TGI: > 100 µM
HL-60(TB) leukemia
  TGI: > 100 µM
HOP-62 NSCLC
  TGI: > 100 µM
HOP-92 NSCLC
  TGI: > 100 µM
HS 578T breast
  TGI: > 100 µM
HT29 colon
  TGI: > 100 µM
IGROV1 ovarian
  TGI: > 100 µM
K-562 leukemia
  TGI: > 100 µM
KM12 colon
  TGI: > 100 µM
LOX IMVI melanoma
  TGI: > 100 µM
M14 melanoma
  TGI: > 100 µM
MCF7 breast
  TGI: > 100 µM
MDA-MB-435
  TGI: > 100 µM
MDA-N
  TGI: > 100 µM
MOLT-4 leukemia
  TGI: > 100 µM
NCI-H23 lung
  TGI: > 100 µM
NCI-H460 lung
  TGI: > 100 µM
NCI-H522 lung
  TGI: > 100 µM
NCI/ADR-RES ovarian
  TGI: > 100 µM
OVCAR-3 ovarian
  TGI: > 100 µM
OVCAR-4 ovarian
  TGI: > 100 µM
OVCAR-5 ovarian
  TGI: > 100 µM
PC-3 prostate
  TGI: > 100 µM
RPMI-8226 leukemia
  TGI: > 100 µM
RXF 393 renal
  TGI: > 100 µM
SF-268 CNS
  TGI: > 100 µM
SF-295 CNS
  TGI: > 100 µM
SK-MEL-28 melanoma
  TGI: > 100 µM
SK-MEL-5 melanoma
  TGI: > 100 µM
SN12C renal
  TGI: > 100 µM
SNB-19 CNS
  TGI: > 100 µM
SW-620 colon
  TGI: > 100 µM
U251 CNS
  TGI: > 100 µM
UACC-257 melanoma
  TGI: > 100 µM
UACC-62 melanoma
  TGI: > 100 µM
UO-31 renal
  TGI: > 100 µM
